The molecules below were run on IL-2 production (assay: Inhibition of IL-2 production in PHA-activated Jurkat cells (ELISA)). Settings: Homo sapiens, PHA 2.5 μg/mL, 20 hours, IL-2 ELISA.
Assay type: cell-based
Experimental: Jurkat cells were placed in a 96 well plate (0.5 million cells per well in 1% FBS medium) then a test compound of this invention was added at different concentrations. After 10 minutes, the cells were activated with PHA (final concentration 2.5 μg/mL) and incubated for 20 hours at 37° C. under CO2. The final volume was 200 μL. Following incubation, the cells were centrifuged and the supernatants collected and stored at −70° C. prior to assaying for IL-2 production. A commercial ELISA kit (IL-2 Eli-pair, Diaclone Research, Besancon, France) was used to detect production of IL-2, from which dose response curves were obtained. The IC50 value was calculated as the concentration at which 50% of maximum IL-2 production after stimulation was inhibited versus a non-stimulation control.

Structure (SMILES)	IC50
CC1=C(c2ccccc2)c2ccc(NC(=O)c3c(F)cccc3F)cc2CCC1 [Compound 7, 2,6-Difluoro-N-(5-phenyl-6-methyl-8,9-dihydro-7H-benzocyclohepten-2-yl)-benzamide]	392 nM
C/C(CO)=C1/CCCc2cc(NC(=O)c3c(F)cccc3F)ccc21 [Compound 5, 2,6-Difluoro-N-[5-(2-hydroxy-1-methyl-ethylidene)-5,6,7,8-tetrahydro-naphthalen-2-yl]-benzamide]	> 1000 nM
Nc1ccc(C2=CCCCc3cc(NC(=O)c4c(F)cccc4F)ccc32)cc1 [Compound 8, 2,6-Difluoro-N-[5-(4-amino-phenyl)-8,9-dihydro-7H-benzocyclohepten-2-yl]-benzamide]	146 nM
C/C(C(=O)O)=C1/CCCc2cc(NC(=O)c3c(F)cccc3F)ccc21 [Compound 1, 2-[6-(2,6-Difluoro-benzoylamino)-3,4-dihydro-2H-naphthalen-1-ylidene]-propionic acid]	> 1000 nM
CC(=O)Nc1ccc(C2=CCCCc3cc(NC(=O)c4c(F)cccc4F)ccc32)cc1 [Compound 9, 2,6-Difluoro-N-[5-(4-acetylamino-phenyl)-8,9-dihydro-7H-benzocyclohepten-2-yl]-benzamide]	560 nM

More lines, now with the values ahead:

IC50	Structure (SMILES)
18 nM	C/C(C(=O)N1CCOCC1)=C1/CCCc2cc(NC(=O)c3c(F)cccc3F)ccc21 [Compound 3, 2,6-Difluoro-N-[5-(1-methyl-2-morpholin-4-yl-2-oxo-ethylidene)-5,6,7,8-tetrahydro-naphthalen-2-yl]-benzamide]
168 nM	O=C(Nc1ccc2c(c1)CCCC=C2c1ccccc1)c1c(F)cccc1F [Compound 6, 2,6-Difluoro-N-(5-phenyl-8,9-dihydro-7H-benzocyclohepten-2-yl)-benzamide]
> 1000 nM	COC(=O)/C(C)=C1\CCCc2cc(NC(=O)c3c(F)cccc3F)ccc21 [Compound 2, 2-[6-(2,6-Difluoro-benzoylamino)-3,4-dihydro-2H-naphthalen-1-ylidene]-propionic acid methyl ester]

From US8809396B2, “Substituted fused-ring compounds for inflammation and immune-related uses” (Synta Pharmaceuticals Corp., priority 2007, dated 2014)
